The record followed here is patent publication US11857550B2, “Benzathine analogs” (University of Pittsburgh—Of the Commonwealth System of …, priority 2012, dated 2024).

Series [1] has as its system C57BL6 mice. Kind of series: Carrageenan induced paw edema. As to conditions: 200 ug IP daily, 48 h. It counts as in vivo. The method, then:
FIGS. 16A-16C. BC-1215 reduces Carrageenan induced paw edema. FIGS. 16A-16C. C57BL6 mice were deeply anesthetized with ketamine (80-100 mg/kg i.p.) and xylazine (10 mg/kg i.p.). Mice were received a subplantar administration of 25 ul of saline or 25 ul of carrageenan (1% in saline), followed by an IP injection of […] of BC-1215 daily for two days. Mice were then euthanized; the thickness and volume of paw was measured (FIG. 16B-16C). (n=4 mice/group, *p<0.05 versus vehicle)
BC-1215 ameliorates Carrageenan induced paw edema. BC-1215 also was tested in a mouse paw edema model to confirm its anti-inflammatory activity. Mice received subplantar administration of 25 ul of saline or 25 ul of carrageenan (1% in saline) (Posadas et al., Br J Pharmacol, 2004. 142(2):p. 331-8), followed by an IP injection of 200 ug of BC-1215 daily. 48 h later, mice were euthanized; the thickness and volume of the paw was measured. […] Thus, the FBXO3 inhibitor BC-1215 suppresses inflammation in a nonpulmonary model of edema involving the extremities.
A general note: Carrageenan injected into the paw causes an acute inflammation.

Another series deals with T1, COX-2 (Mus musculus, UniProt Q05769).
T1 construct: MLE cells were treated with BC-1215 (10 ug/ml) for 24 h before assaying for COX-2 activity (Cayman); endogenous in cells; host or cells: MLE (murine lung epithelial) cells
T1 sequence (Q05769 18-604): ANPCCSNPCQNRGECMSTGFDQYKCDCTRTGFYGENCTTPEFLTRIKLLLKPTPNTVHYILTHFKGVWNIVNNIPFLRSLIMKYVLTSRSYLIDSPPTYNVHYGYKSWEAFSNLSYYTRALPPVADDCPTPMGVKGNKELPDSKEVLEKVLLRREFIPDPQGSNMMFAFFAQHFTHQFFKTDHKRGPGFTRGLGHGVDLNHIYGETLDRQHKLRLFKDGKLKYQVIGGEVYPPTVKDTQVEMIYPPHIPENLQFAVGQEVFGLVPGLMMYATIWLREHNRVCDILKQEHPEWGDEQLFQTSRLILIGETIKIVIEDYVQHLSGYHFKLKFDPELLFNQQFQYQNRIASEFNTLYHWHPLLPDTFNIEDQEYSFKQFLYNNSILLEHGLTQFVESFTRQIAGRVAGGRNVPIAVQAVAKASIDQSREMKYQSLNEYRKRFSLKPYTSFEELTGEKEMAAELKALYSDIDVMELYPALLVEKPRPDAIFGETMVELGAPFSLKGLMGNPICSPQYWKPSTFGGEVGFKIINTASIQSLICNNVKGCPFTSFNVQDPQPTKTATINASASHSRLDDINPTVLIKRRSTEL
Nature of the series: COX-2 activity in MLE cells. Type of series: cell-based, murine. As to conditions: 10 ug/ml, 24 h; positive control DuP-697.

The subject of series [2] is C57BL6 mice. Nature of the series: DSS induced (acute) colitis. As to conditions: 200 ug IP daily, 3.5% DSS up to five days. It counts as in vivo. The method, then:
FIGS. 17A-17D. BC-1215 reduces DSS induced colonic inflammation. FIGS. 17A-FIG. 17C. C57BL6 mice were fed with water containing 3.5% dextran sulfate sodium (DSS) for up to five days. Mice were treated with either vehicle or 100 ug of BC-1215 daily (via IP injection). Mice were then euthanized; the length of the colon was measured and graphed in (FIG. 17A). Colonic tissues were also analyzed for IL1β (FIG. 17B) and TNFα (FIG. 17C) by ELISA. (n=4 mice/group, *p<0.05 versus DSS) FIG. 17D, H&E staining was performed on colonic samples. (n=4 mice/group, *p<0.05 versus DSS)
FIGS. 24A-24E. […] A-D. C57BL6 mice were fed with water ad lib containing 3.5% dextran sulfate sodium (DSS) for up to five days. Mice were treated with either vehicle (control [CON]) or BC-1261 (150 μg) daily (via an i.p. injection), or BC-1261 were administered into drinking water at 30 μg/ml (po). Mice were then euthanized and the length of the colon was measured and graphed in (A-B). Colonic tissues were also analyzed for TNFα (C) and IL6(D). E. H&E staining was performed on colonic sections. The data represent n=4 mice/group, *P<0.05 versus DSS and **P<0.05 versus CON.
BC-1215 ameliorates DSS induced colitis. BC-1215 was also tested in a mouse colitis model to confirm its anti-inflammatory activity. Briefly, C57BL6 mice were fed with water containing 3.5% dextran sulfate sodium (DSS) for up to five days. Mice were treated with either vehicle or 200 ug of BC-1215 daily (via IP injection). Mice were then euthanized; the length of colons was measured. […] Colonic tissue cytokine levels were analyzed. […] Thus, the FBXO3 inhibitor BC-1215 suppresses inflammation in chemical induced colitis model in mice.

Another series concerns MLE cells. Kind of series: MLE cells protein immunoblotting. Type of series: cell-based, murine. As to conditions: different concentrations, 16 h. The text has this:
FIGS. 10A-10E. BC-1215 inhibits FBXO3 and decreases TRAF protein levels. FIG. 10A. […] FIG. 10B. In vitro ubiquitination assays. […] FIG. 10C. […] Cells were collected and assayed for immunoblotting. FIG. 10D. […] FIG. 10E.
BC-1215 inhibits FBXO3 and decreases TRAF protein levels. […] Cells were collected and assayed for protein immunoblotting.

The test system of a further series is PBMC cells. Nature of the series: LPS-treated PBMC human cytokine array. As to conditions: 10 ug/ml compound, 2 ug/ml LPS, 16 hrs. Type of series: cell-based. The method, then: FIG. 9. BC-1215 inhibits a broad spectrum of Th1 panel cytokines. PBMC cells (0.6 ml at 1.5*10^6/ml) were treated with 2 ug/ml LPS for 16 his with BC-1215 at 10 ug/ml. Cytokine release was monitored by the human cytokine array (R&D systems).
PBMC cells were treated with 2 ug/ml LPS for 16 hrs along with BC-1215 at 10 ug/ml. Cytokine release was monitored by a human cytokine array (R&D systems). […] These cytokines are tightly linked to the pathogenesis of many pro-inflammatory diseases, some of which have led to the use of blocking cytokine antibodies to reduce disease severity. For example: GM-CSF drives inflammation in rheumatoid arthritis (RA), and currently, GM-CSF blocking antibodies (MOR103) have been tested in Phase 1b/2a trial in patients suffering from RA.

Procedure for Hela cells: Hela cells were treated with BC-1215 at different concentrations for 24 h before cell cycle analysis (BD bioscience).

Consider `c1ccc(-c2ccc(CNCCNCc3ccc(-c4ccccn4)cc3)cc2)nc1` [BC-1215], for which, in the series on C57BL6 mice [1], the paw edema result is given as “significantly reduced” and the paw thickness result is recorded as “significantly reduced”. For the same compound, the COX-2 activity result at COX-2 is given as “did not alter COX-2 activity”. In the series on C57BL6 mice [2], the “IL1β levels in colon tissues” value is “remarkable reduction”, the “TNFα levels in colon tissues” value is recorded as “remarkable reduction”, the colon length result is on record as “no significant decrease in colon length compared to control” and the “colonic tissue injury (H&E)” value is recorded as “significantly reduced”. In addition, in the series with MLE cells, the FBXL2 protein levels entry is “increased FBXL2 protein levels in a dose dependent manner” and the TRAF protein levels entry is on record as “decreasing TRAF protein levels”. Further, in the series on Hela cells, the cell cycle progression result is reported as “did not significantly alter cell cycle progression”. In addition, the “TH1 panel cytokine release” value with PBMC cells was “significantly suppress the majority of the TH1 panel cytokines”.
